Marks after values point to notes of the source that are not given here.
Tests used:
Assay type in all cases: in vivo
Settings in all cases: 100 = 100% disease control
Alternaria solani = assay: Test D: tomato early blight, sprayed the day before inoculation, visual disease rating
Method in brief: (§1)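 Test rate was 200 ppm, sprayed to run-off and equal to 500 g/ha, or 40 ppm where marked. The compound was first taken up in acetone at 3% of final volume and suspended in acetone/purified water (50/50) containing 250 ppm Trem® 014.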

Septoria tritici = assay: Test G: wheat leaf blotch on wheat seedlings, sprayed the day before inoculation, visual disease rating
Method in brief: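 Wheat seedlings were sprayed to run-off with test suspension (acetone/water plus surfactant), generally 200 ppm (≈500 g/ha), or 40 ppm where marked. Septoria tritici spores were inoculated the next day; plants were held 48 h at 24°C in saturated atmosphere, then 19 days at 20°C before visual disease rating.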

[1] = tested on: Puccinia recondita f. sp. tritici; assay: Test I: wheat leaf rust on wheat seedlings, sprayed the day before inoculation, visual disease rating
Method in brief: as §1

[2] = tested on: Puccinia recondita f. sp. tritici; assay: Test H: wheat leaf rust, test suspension sprayed after inoculation of wheat seedlings, visual disease rating
Method in brief: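 Wheat seedlings inoculated with P. recondita spores, held 24 h saturated at 20 °C, then 2 days in growth chamber at 20 °C; compound suspension (acetone/water with Trem 014) sprayed to run-off afterwards. Rated visually; 200 ppm (≈500 g/ha) unless marked *, which denotes 40 ppm.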

Septoria nodorum = assay: Test F: wheat glume blotch on wheat seedlings, sprayed the day before inoculation, visual disease rating
Method in brief: as §1

Botrytis cinerea = assay: Test C: tomato Botrytis on tomato seedlings, sprayed the day before inoculation, visual disease rating
Method in brief: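 Each compound is first taken up in acetone at 3% of the final volume and then brought to the desired ppm in a 50:50 acetone–water mix with 250 ppm surfactant (polyhydric alcohol esters). Tomato seedlings receive the suspension to run-off, normally at 200 ppm, occasionally 40 ppm.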

[3] = tested on: Erysiphe graminis f. sp. tritici; assay: Test J: wheat powdery mildew on wheat seedlings, sprayed the day before inoculation, visual disease rating
Method in brief: as §1

[4] = 200 ppm, 0 = no control relative to controls
[5] = 40 ppm (marked *), 0 = no control

Row | SMILES | Test D disease control rating (Alternaria solani; [4]) | Test G disease control rating (Septoria tritici; [4]) | Test I disease control rating [1, 4] | Test H disease control rating [2, 4] | Test F disease control rating (Septoria nodorum; [4]) | Test C disease control rating (Botrytis cinerea; [4]) | Test J disease control rating [3, 4] | also measured
1 | COc1cc(F)c(-c2c(Cl)nc(Br)n2-c2ccc(C)c(C#N)c2)c(F)c1 [compound 607] |  |  |  |  |  |  |  | Test D disease control rating (Alternaria solani; 40 ppm (marked *)): 96* %; Test G disease control rating (Septoria tritici; 40 ppm (marked *)): 99* %; Test I disease control rating ([1]; 40 ppm (marked *)): 86* %; Test H disease control rating ([2]; 40 ppm (marked *)): 7* %; Test F disease control rating (Septoria nodorum; 40 ppm (marked *)): 31* %; Test C disease control rating (Botrytis cinerea; 40 ppm (marked *)): 100* %; Test J disease control rating ([3]; 40 ppm (marked *)): 82* %
2 | Fc1cc(F)c(-c2c(Cl)nc(Br)n2-c2cccc(OC(F)(F)F)c2)c(F)c1 [compound 605] | 0% | 73% | 0% | 0% | 0% | 19% | 94% | 
3 | Fc1cccc(-n2c(Cl)nc(Cl)c2-c2c(F)ccc(F)c2F)c1 [compound 366] | 100% | 91% | 99% | 41% | 64% | 100% | 97% | 
4 | COc1cc(F)c(-c2c(Cl)nc(Br)n2-c2ccc(OC(F)F)cc2)c(F)c1 [compound 546] | 100% | 98% | 100% | 0% | 99% | 100% | 100% | 
5 | COc1cc(F)c(-c2c(C)nc(Br)n2-c2ccc(C(F)(F)F)nc2)c(F)c1 [compound 731] | 100% | 100% | 99% | 0% | 99% | 99% | 100% | 
6 | COc1cc(F)c(-c2c(Cl)ncn2Cc2ccc(C)cc2)c(F)c1 [compound 274] |  |  |  |  |  |  |  | Test D disease control rating (Alternaria solani; 200 ppm, 0 = no control): 100%; Test G disease control rating (Septoria tritici; 200 ppm, 0 = no control): 94%; Test I disease control rating ([1]; 200 ppm, 0 = no control): 99%; Test H disease control rating ([2]; 200 ppm, 0 = no control): 48%; Test F disease control rating (Septoria nodorum; 200 ppm, 0 = no control): 51%; Test C disease control rating (Botrytis cinerea; 200 ppm, 0 = no control): 100%; Test J disease control rating ([3]; 200 ppm, 0 = no control): 77%
7 | COc1cc(F)c(-c2c(Cl)nc(Cl)n2-c2ccc(C)c(Cl)c2)c(F)c1 [compound 502] |  |  |  |  |  |  |  | Test D disease control rating (Alternaria solani; 40 ppm (marked *)): 92* %; Test G disease control rating (Septoria tritici; 40 ppm (marked *)): 93* %; Test I disease control rating ([1]; 40 ppm (marked *)): 98* %; Test H disease control rating ([2]; 40 ppm (marked *)): 0* %; Test F disease control rating (Septoria nodorum; 40 ppm (marked *)): 60* %; Test C disease control rating (Botrytis cinerea; 40 ppm (marked *)): 90* %; Test J disease control rating ([3]; 40 ppm (marked *)): 100* %
8 | COc1cc(F)c(-n2c(Cl)nc(CCl)c2-c2cccc(F)c2)c(F)c1 [compound 712] |  | 95% |  |  |  |  |  | Test D disease control rating (Alternaria solani; 40 ppm (marked *)): 57* %; Test I disease control rating ([1]; 40 ppm (marked *)): 86* %; Test H disease control rating ([2]; 40 ppm (marked *)): 7* %; Test F disease control rating (Septoria nodorum; 40 ppm (marked *)): 0* %; Test C disease control rating (Botrytis cinerea; 40 ppm (marked *)): 100* %; Test J disease control rating ([3]; 40 ppm (marked *)): 61* %
9 | COc1cc(F)c(-c2c(C)nc(Br)n2-c2ccc(OC)nc2)c(F)c1 [compound 736] | 100% | 100% | 100% | 99% | 97% | 99% | 100% | 
10 | Fc1cc(-n2c(Br)nc(Br)c2-c2c(F)ccc(F)c2F)ccc1Cl [compound 382] |  |  |  |  |  |  |  | Test D disease control rating (Alternaria solani; [5]): 99* %; Test G disease control rating (Septoria tritici; [5]): 96* %; Test I disease control rating [1, 5]: 95* %; Test H disease control rating [2, 5]: 0* %; Test F disease control rating (Septoria nodorum; [5]): 0* %; Test C disease control rating (Botrytis cinerea; [5]): 100* %; Test J disease control rating [3, 5]: 97* %
11 | Cn1c(-c2c(Br)nc(Br)n2-c2ccc(Cl)cc2)nc(Br)c1Br [compound 372] | 0% | 91% | 74% | 0% | 0% | 99% | 0% | 
12 | N#Cc1ccc(F)c(-c2cnc(Cl)n2-c2ccc(Cl)nc2)c1F [compound 697] | 91% | 98% | 19% | 8% | 0% | 100% | 93% | 
13 | COc1ccc(F)c(-c2c(Cl)nc(Br)n2-c2ccc(Cl)c(F)c2)c1F [compound 317] | 100% | 95% | 99% | 17% | 100% | 100% | 100% | 
14 | COc1cc(F)c(-c2c(Cl)nc(Cl)n2-c2ccc(OC(F)F)cc2)c(F)c1 [compound 566] | 100% | 97% | 100% | 97% | 100% | 100% | 100% | 
15 | COc1ccc(-n2c(Br)nc(Br)c2-c2c(F)cccc2F)cn1 [compound 622] | 100% | 99% | 100% | 100% | 99% | 100% | 100% | 
16 | COC(=O)Cc1nc(Br)c(-c2c(F)cccc2F)n1-c1ccc(Cl)cc1 [Compound 544, methyl 4-bromo-1-(4-chlorophenyl)-5-(2,6-difluorophenyl)-1H-imidazole-2-acetate] |  |  |  |  |  |  |  | pest or weed control at 200 ppm (Alternaria solani; Alternaria solani, 168 h, 200 ppm, 0 = no control relative to controls): 98%; pest or weed control at 200 ppm (Septoria tritici; Zymoseptoria tritici, 504 h, 200 ppm, 0 = no control relative to controls): 82%; pest or weed control at 200 ppm ([1]; Puccinia recondita, 168 h, 200 ppm, 0 = no control relative to controls): 91%; pest or weed control at 200 ppm ([2]; Puccinia recondita, 96 h, 200 ppm, 0 = no control relative to controls): 9%; pest or weed control at 200 ppm (Septoria nodorum; Parastagonospora nodorum, 264 h, 200 ppm, 0 = no control relative to controls): 0%; pest or weed control at 200 ppm (Botrytis cinerea; Botrytis cinerea, 120 h, 200 ppm, 0 = no control relative to controls): 84%; pest or weed control at 200 ppm ([3]; Blumeria graminis, 168 h, 200 ppm, 0 = no control relative to controls): 86%
17 | COc1cc(F)c(-c2c(Cl)nc(Br)n2Cc2ccc(Cl)nc2)c(F)c1 [compound 670] | 100% | 98% | 98% | 0% | 100% | 100% | 94% | 
18 | COc1cc(OC)cc(-n2c(C)nc(Cl)c2Cc2c(F)cc(F)cc2F)c1 [compound 534] | 0% | 2% | 0% | 0% | 0% | 38% | 0% | 
19 | COc1cc(F)c(-c2c(Cl)nc(Cl)n2-c2cncc(F)c2)c(F)c1 [compound 728] | 100% | 99% | 100% | 100% | 100% | 100% | 100% | 
20 | CCc1cccc(-n2c(C)nc(Cl)c2-c2c(F)ccc(OC)c2F)c1 [compound 418] | 100% | 100% | 97% | 0% | 99% | 100% | 100% | 
21 | Fc1cccc(F)c1-c1c(Cl)nc(Br)n1-c1ccc(Cl)nc1 [compound 711] | 100% | 99% | 99% | 98% | 99% | 100% | 99% | 
22 | Cc1nc(C)n(-c2ccc(F)cc2Cl)c1-c1ccc(Cl)cc1 [compound 307] | 99% | 97% | 97% | 11% | 0% | 100% | 99% | 
23 | Fc1cccc(F)c1-c1c(Cl)nc(Cl)n1-c1cccnc1Cl [compound 617] | 99% | 100% | 100% | 100% | 0% | 99% | 99% | 

Source: US20110045101A1, “FUNGICIDAL SUBSTITUTED AZOLES” (E.I. Du Pont De Nemours and Company, priority 2009, published 2011)
